From US9017938B2, “Use of microrna-199b-5p in medical and diagnostic field” (Advanced Accelerator Applications, priority 2009, dated 2015)

Columns and labels:
Daoy cells [1] = assay: Orthotopic cerebellar xenograft (BLI, PET-CT, immunohistochemistry); assay type: in vivo, nude mice; settings: 199bSC1 clone injected into fourth ventricle, four weeks, vs control cells
Experimental: The mice were kept in a ventilated cage (26° C.) for 1 h prior to imaging studies. Anesthesia was performed with intraperitoneal administration of a mixture of ketamine (100 mg/kg) and xylazine (10 mg/kg) (injection volume, 100 μl/10 g). PET was performed 1 h after administration of 3′-deoxy-3′-[18F]fluorothymidine ([18F]FLT), a marker of tumor proliferation (50 μL; 7.4 MBq; scan time, 18 min), in a lateral caudal vein, using an animal PET scanner (GE Healthcare eXplore Vista, FWHM 1.6 mm). High resolution CT studies (GE Healtcare eXplore Locus; spatial resolution, 45 μm) were performed within 24 h from the PET.
Lesion volumes were calculated from PET data using in-house-developed software (based on IDL, ITT Vis Inc), by summarizing all spatially connected voxels with SUV>50% SUVmax. Lesion profiles defined with these procedures were used for ROI-based comparison between AdV5-Mock and AdV5-199b.
Unmasking was performed in 10 mM citrate buffer, pH 6, at 97° C. for 45 min. […]
To establish intracerebellar xenograft models, 6-to-8-week-old SCID mice were anesthetized with Tribromoethanol (Avertin®) (50 mg/kg); after this, a small skin incision (1 mm) was made and a burr hole (0.7 mm in diameter) created with a microsurgical drill (Fine Science Tools, Foster City, Calif.). […] The animals were monitored weekly by bioluminescence to evaluate tumor growth for 8 weeks.

Daoy cells [2] = assay: Proliferation assay MTS, Daoy; assay type: cell-based, human; settings: stable 199bMC1 and 199bSC1 clones vs empty-vector clone
Experimental: Cell proliferation was determined using the CellTiter96 AQueous Non-Radioactive Cell Proliferation Assay Kit (Promega Madison, Wis.). The cells were seeded into 96-well plates at a density of 1×10^3 cells/well in EMEM without or with FBS. After 0, 24, 48 and 72 h, MTS ([3-(4,5-dimethylthiazol-2-yl)-5-(3-carboxymethoxyphenyl)-2-(4-sulfophenyl)-2H-tetrazolium]) and PMS (phenazine methosulfate) were added to each well and after 4 h the absorbance of each well was measured at 490 nm (OD490) using Multilabel counter Victor^3 (Perkin Elmer). Each condition was performed with five wells and each experiment was repeated twice.
Proliferation assay (MTS) was made by kit CellTiter96 AQueous Non-Radioactive Cell Proliferation Assay (Promega) for 72 h. The cell lines daoy, MDA-231T and 4t1 treated with the control SNALP and with the miR 199b-5p were transferred in 96 multiwell at the concentration of 1000 and 3000 cells (daoy, MDA-231T and 4t1, respectively) in 100 μl of complete medium. For each experimental point were done 5 replicates. After 24, 48 e 72 h in each well was added 20 μl of 5× solution. After 4 h was read the absorbance of the formazane at 490 nm by Multilabel counter Victor3 (Perkin Elmer).

HES1 3′UTR = assay: Luciferase reporter assay, HES1 3′UTR; assay type: cell-based, human; settings: co-transfected miR-199b-5p expression vector
Experimental: To determine the activity of miR-199b-5p on repression of the luciferase-3′UTR fused constructs, the pREYZO-miR-199b-5p construct and the pRL-CMV-3′UTR target construct were co-transfected into HEK293 cells at a ratio of 10:1, using the Polyfect reagent (Qiagen) together with the pGL3 basic vector, in the absence and presence of 2-OM (400 nM). Luciferase activities were analysed using a Dual Luciferase Reporter Assay system (Promega, Madison, Wis.).
Pre-miR-199b was cloned in a pcDNA3 modified vector (pREYZO) (D'angelo et al., 2004) using EcoRI-XhoI restriction sites. HES1 and GSK-3˜target-binding sites (3′UTRs) were cloned in tandem in the 3′UTR of 20 the pRL-cytomegalovirus (CMV) vector (Promega, Madison, Wis.) downstream of the coding region of Renilla luciferase (RL) in the XbaI site The HES1 3′UTR (including the 199b binding site) was amplified from genomic DNA with the following primers: HES1—3′UTR as […] (SEQ ID NO: 96) and HES1—3′UTR as […] (SEQ ID NO: 97), and was cloned in the TK vector (Promega, Madison, Wis.) upstream of the firefly luciferase gene, in the XbaI sites. HES1 full-length cDNA was obtained with a standard RTPCR approach from a Daoy cDNA.
The site-directed mutagenesis of the miR-199b-5p binding site in HES1 3′UTR was generated according to the manufacturer protocol of the QuikChange site-directed mutagenesis kit (Stratagene, La Jolla, Calif.). […]

HES1 = assay: Western blotting of HES1 protein; assay type: cell-based, human
Experimental: Thirty μg cytosolic or nuclear lysates were loaded onto 12% polyacrilamide gels, and blotted onto polyvinylidene difluoride membranes (PVDF; BioRad, Milan, Italy). The membranes were then incubated with anti-HES1 (kind gift of Dr. Tetsuo Sudo TORAY Industries, Tebiro Kamakura, Japan), a polyclonal rabbit antibody (1:500), an anti-GSK3-β (B&D Bioscience) monoclonal antibody (1:2500), an anti-c-Myc polyclonal rabbit antibody (1:200) (Santa Cruz Biotechnology, Santa Cruz, Calif., USA), an anti-GABRA6 antibody (Santa Cruz Biotechnology, Santa Cruz, USA) (1:200), an anti-MATH3 antibody (Santa Cruz Biotechnology, Santa Cruz, USA) (1:200) and an anti-cyclin D1 (1:200) polyclonal rabbit antibody (Cell Signaling). An anti-β-actin antibody (1:1.000) (Sigma) was used as the control for equal loading of cytosolic lysates and a polyclonal anti-β-laminin antibody (1:50) (Santa Cruz Biotechnology, Santa Cruz, Calif., USA) for equal loading of nuclear lysates.

## miR-199b-5p: mature microRNA CCCAGUGUUUAGACUAUCUGUUC (SEQ ID NO:11); over-expressed from pre-miR-199b construct, e.g. stable Daoy clones 199bSC1, 199bMC1 (listed as RNA, chemistry not fully specified)
Daoy cells [1]
  tumor growth by BLI: considerably lower
Daoy cells [2]
  proliferation rate: markedly reduced proliferation rates
HES1 3′UTR
  effect on luciferase reporter with HES1 3′UTR mutated in the miR-199b binding site: no effect
HES1 3′UTR; HEK293 and Daoy cell lines
  reduction of luciferase activity from wild-type HES1 3′UTR reporter: 50%
HES1; D283 cells, transient transfection vs empty vector
  endogenous HES1 protein level: lowered the levels of the endogenous HES1 protein
HES1; HEK293 cells, transient transfection, 48 h
  endogenous HES1 protein level: lowered the levels of the endogenous HES1 protein
HES1; stable Daoy clone 199bSC1
  HES1 protein level: no detectable HES1
HES1; three stable Daoy clones over-expressing miR-199b-5p
  HES1 protein level: reduced HES1 protein levels
